Assay results taken from article PMC10002493, “Direct Oral FXa Inhibitors Binding to Human Serum Albumin: Spectroscopic, Calorimetric, and Computational Studies” (International Journal of Molecular Sciences, 2023).
Structures can show the parent of a compound that is named as a salt. Where two headings read alike, the source gives them in different places.

Experiments:
[1] = system: T1, human serum albumin (HSA); experiment: Steady-state fluorescence quenching of HSA (Stern–Volmer analysis); format: binding; conditions: for Ksv of salt compared to the neutral compound: 298 K and 310 K; for Ksv (Stern–Volmer constant): 0.10 M tris-HCl pH 7.4, 0.10 M NaCl, 2 µM HSA, 0–20 µM drug, λex 295 nm
T1 construct: purchased Sigma-Aldrich
Experimental: The fluorescence intrinsic to proteins is attributed to aromatic amino acid residues, such as tryptophan (Trp), phenylalanine (Phe), and tyrosine (Tyr). The fluorescence of HSA in particular can be traced back to its tyrosine and tryptophan residues, therefore the experiments were performed with an excitation wavelength of 295 nm, because tryptophan absorbs light in this range [33]. HSA has a single tryptophan residue (Trp-214) close to the Sudlow site I (subdomain IIA), responsible for the main fluorescence emission of the protein [34, 35]. Binding to this site induces fluorescence quenching, which is a very helpful tool to evaluate different drugs’ interactions with HSA.
Sample measurements were recorded in 0.10 M tris-HCl buffer pH 7.4 with 0.10 M NaCl, 2 µM HSA, 0–20 µM FXa inhibitors respectively (λex = 295 nm).
The quenching process of HSA can be described as static or dynamic. Static quenching occurs when HSA forms complexes with anticoagulants in the ground state, whereas dynamic quenching occurs via diffusion-controlled encounters in the excited state. Consequently, temperature affects the quenching processes in a different manner. The Stern–Volmer constant has a temperature dependence: Ksv in a dynamic process increases with temperature due to the necessity of successful diffusion and collision of the FXa inhibitors with the tryptophan residues of HSA. In a static quenching process, Ksv decreases with rising temperature, due to the diminished stability of the complex in the ground state. The quenching process of HSA can be analyzed by the Stern–Volmer equation, which provides helpful information regarding the binding process. Table 1 and Figure 4 summarize the Ksv of the HSA-FXa inhibitor complexes at 298 K and 310 K respectively. The Ksv of betrixaban and edoxaban were compared with their respective salts, betrixaban maleate (BEM) and edoxaban tosylate hydrate (EDT).
Fluorescence emission spectra were collected on a Perkin Elmer LS55 fluorimeter, using 5 nm bandwidths for excitation and emission. Samples were excited at 295 nm and 298 K or 310 K, respectively. Subsequently, HSA fluorescence was measured at 350 nm decreases, in the presence of different anticoagulants, corrected by the inner-filter effect using Equation (1) where Icorr and Iobs correspond to fluorescence corrected and obtained intensities, and Aex and Aem correspond to the absorbance at the excitation and emission wavelengths. The quenching data were evaluated using the Stern–Volmer Equation (2), where I0 and I are the fluorescence intensities of the HSA in the absence or presence of anticoagulants (Q, quenchers), and Ksv is the Stern–Volmer constant:(1) Icorr=Iobs×10^Aex+Aem/2 (2) I0/I=1+KsvQ

[2] = Aqueous solubility observed in preparing ITC solutions; format: physicochemical; conditions: also with solvent mixtures that included ethanol and DMSO, prevented ITC data
Experimental: (§1) ITC analyses were performed in phosphate buffer, 10 mM, pH = 7.4. […] Lower ionization enthalpy reduces heat signals associated with proton-exchange reactions between the buffer and the ligand/host system during complex formation. […] A plot of the heat released per mole of HSA as a function of the molar ratio of the solution ([HSA]/[anticoagulant]) is shown at the foot of each figure. […] Control titrations were performed (drug over buffer) and subtracted from each analysis before the fitting.
(§2) ITC data were obtained using a MicroCal PEAQ-ITC instrument (Malvern Panalytical). […] Working solutions were prepared using aliquots of the stock solutions of anticoagulants diluted in phosphate buffer, 10 mM, pH = 7.4. […] The first injection was 0.40 μL, followed by 12 injections of 3.0 μL. Reference power was set to 5 μcal/s, 500 rpm stirring speed, initial delay of 60 s, and injection spacing of 150 s. Titration curves were drawn in duplicate and the thermodynamic parameters were fitted to the one-site binding model using Microcal PEAQ-ITC analysis software. Controls were measured by recording the heat effects of the titrant over plain buffer and were subtracted from thermograms before fitting analysis. All the measurements were performed in duplicate.

[3] = target: T2, fatty-acid-free HSA; experiment: Isothermal titration calorimetry (ITC) of anticoagulants with HSA; set-up: species or system human; conditions: phosphate buffer 10 mM, pH 7.4, 298 K, one-site binding model
T2 construct: purchased Sigma-Aldrich
Experimental: as §1, §2

[4] = reversible protein–drug complexes; cited from earlier work
[5] = system: HSA: heme-Fe(III); set-up: method as in PMID 32279215; conditions: pH 7.3, 20 °C, Phosphate 2.0 × 10^−2 M DMSO 10%, binding site IB, UV; cited from earlier work
[6] = system: HSA fatty acid-free; set-up: method as in PMID 29680174; conditions: Tris–HCl (0.10 M NaCl) DMSO 2%, FS, cited from earlier work
[7] = set-up: method as in PMID 32279215; conditions: rivaroxaban-treated patients; cited from earlier work
[8] = system: BSA; conditions: binding site IIA, FS, cited from earlier work

CN1CCc2nc(C(=O)N[C@@H]3C[C@@H](C(=O)N(C)C)CC[C@@H]3NC(=O)C(=O)Nc3ccc(Cl)cn3)sc2C1.Cc1ccc(S(=O)(=O)O)cc1.O [EDT, Edoxaban tosylate hydrate]
Ksv of salt compared to the neutral compound [1]: no significant differences
Ksv (Stern–Volmer constant) ([1]; 298 K): 1.79±0.03 ×10^4 M^−1
Ksv (Stern–Volmer constant) ([1]; 310 K): 1.27±0.02 ×10^4 M^−1
aqueous solubility [2]: poor aqueous solubility

COc1ccc(NC(=O)c2ccc(C(=N)N(C)C)cc2)c(C(=O)Nc2ccc(Cl)cn2)c1 [BEM, betrixaban maleate]
Ksv of salt compared to the neutral compound [1]: no significant differences
Ksv (Stern–Volmer constant) ([1]; 298 K): 1.59±0.05 ×10^4 M^−1
Ksv (Stern–Volmer constant) ([1]; 310 K): 1.36±0.03 ×10^4 M^−1
KITC binding constant [3]: 1600 M⁻¹

CN1CCc2nc(C(=O)N[C@@H]3C[C@@H](C(=O)N(C)C)CC[C@@H]3NC(=O)C(=O)Nc3ccc(Cl)cn3)sc2C1 [ED, edoxaban]
binding to plasma proteins [4]: 55%
Ksv (Stern–Volmer constant) ([1]; 298 K): 1.60 ± 0.04 ×10^4 M^−1
Ksv (Stern–Volmer constant) ([1]; 310 K): 1.28 ± 0.05 ×10^4 M^−1
K [5]: 769000 M⁻¹
aqueous solubility [2]: poor aqueous solubility
aqueous solubility ([2]; listed as edoxaban): low water solubility

COc1ccc(-n2nc(C(N)=O)c3c2C(=O)N(c2ccc(N4CCCCC4=O)cc2)CC3)cc1 [AP, apixaban]
Ksv (Stern–Volmer constant) ([1]; 298 K): 3.36 ± 0.03 ×10^4 M^−1
Ksv (Stern–Volmer constant) ([1]; 310 K): 2.79 ± 0.02 ×10^4 M^−1
KITC binding constant [3]: 5560 M⁻¹
K ([6]; pH 7.4, 28 °C, binding site IIA): 3410 M⁻¹
K ([6]; pH 7.4, 37 °C, binding site IB): 2460 M⁻¹
K ([6]; pH 7.4, 45 °C, binding site IB): 1670 M⁻¹
K [5]: 2.78e+06 M⁻¹

COc1ccc(NC(=O)c2ccc(C(=N)N(C)C)cc2)c(C(=O)Nc2ccc(Cl)cn2)c1 [BE, betrixaban]
Ksv (Stern–Volmer constant) ([1]; 298 K): 1.86 ± 0.03 ×10^4 M^−1
Ksv (Stern–Volmer constant) ([1]; 310 K): 1.44 ± 0.04 ×10^4 M^−1
K [5]: 1.61e+06 M⁻¹
aqueous solubility [2]: poor aqueous solubility

O=C(NC[C@H]1CN(c2ccc(N3CCOCC3=O)cc2)C(=O)O1)c1ccc(Cl)s1 [RV, rivaroxaban]
binding to plasma proteins [4]: 95%
Ksv (Stern–Volmer constant) ([1]; 298 K): 1.56 ± 0.03 ×10^4 M^−1
Ksv (Stern–Volmer constant) ([1]; 310 K): 0.98 ± 0.04 ×10^4 M^−1
adjusted risk of bleeding per 1.0 g/dL incremental decrease in albumin [7]: 4.4 fold
K ([8]; pH 7.4, 25 °C, Phosphate DMSO 0.3%): 132000 M⁻¹
K ([8]; pH 7.4, 30 °C, Phosphate DMSO 0.3%): 18200 M⁻¹
K ([8]; pH 7.4, 35 °C, Phosphate buffer DMSO 0.3%): 4370 M⁻¹
K [5]: 455000 M⁻¹
aqueous solubility [2]: poor aqueous solubility
aqueous solubility ([2]; listed as rivaroxaban): low water solubility
